According to article PMC10096842, “Identification of Flavone Derivative Displaying a 4′-Aminophenoxy Moiety as Potential Selective Anticancer Agent in NSCLC Tumor Cells” (Molecules, 2023):

Key:
[1] = test system: p21 expression in HDF cell line; experiment: Western blot of p21 expression, HDF; assay type: cell-based, human; conditions: APF-1 treatment, 24 h
Method: (§1) Analysis of cell extracts (20 µg total proteins) was performed using SDS-PAGE 12% (Bio-Rad Laboratories, Hercules, CA, USA). Electrophoresis was carried out under reducing conditions, where uniformly negatively charged proteins move according to their mass. The proteins were then transferred to a PVDF membrane using the Trans-Blot Turbo instrument (Bio-Rad Laboratories, USA), after which the membrane was blocked with Every Blot Blocking Buffer (Bio-Rad Laboratories, USA). P21 protein levels were analyzed by Western blotting using a specific rabbit monoclonal primary antibody that specifically recognizes p21 protein (ab109199, Cambridge, MA, USA), and a secondary antibody anti-rabbit HRP (TA130023, OriGene Technologies, Rockville, MD 20850, USA) and detected by chemiluminescence using the Chemidoc device (Bio-Rad Laboratories, USA). […] GADPH protein levels were analyzed by Western blotting using a specific rabbit monoclonal primary antibody that specifically recognizes this protein (ARC0205, catalog number MA535235, Thermo Scientific, Waltham, MA, USA) and secondary antibody anti-rabbit HRP (TA130023, OriGene Technologies, Rockville, MD 20850, USA), also in this case detected by chemiluminescence with the Chemidoc instrument (Bio-Rad Laboratories, USA).

[2] = test system: p21^waf1/cip1 protein level in H1975 cells; experiment: Western blot of p21 expression, H1975; assay type: cell-based, human; conditions: 24 h
Method: as §1

Compound: Nc1ccc(Oc2ccc3oc(-c4cccc(Oc5ccccc5)c4)cc(=O)c3c2)cc1 [APF-1]
- change in p21 expression [1]: did not observe any significant change
- increase in p21 level with respect to untreated cells ([2]; H1975, 1.5 µM): 3 fold
- increase in p21 level with respect to untreated cells ([2]; H1975, 3 µM): 3 fold
